Assay results published in patent US7390819B2 (Altana Pharma AG, priority 2003, dated 2008).

Molecular target: T1, human inducible NO-synthase (Homo sapiens, UniProt P35228)
T1 construct: host or cells: crude cytosolic fraction
Assay: Measurement of inducible NO-synthase activity ([3H]arginine conversion)
Format: biochemical
Conditions: crude cytosolic fraction containing human inducible NO-synthase; 0.1 μM arginine; 45 to 60 min at 37° C.; read-out: Inhibition of INOS activity [measured as −logIC50 (mol/l)] (converted)
Experimental: Measurement of Inducible NO-synthase Activity
The assay is performed in 96-well microliter F-plates (Greiner, Frickenhausen, FRG) in a total volume of 100 μl in the presence of 100 nM calmodulin, 226 μM CaCl2, 477 μM MgCl2, 5 μM flavin-adenine-dinucleotide (FAD), 5 μM flavin mononucleotide (FMN), 0.1 mM NADPH, 7 mM glutathione, 10 μM BH4 and […] pH 7.2. Arginine concentrations are 0.1 μM for enzyme inhibition experiments. 150000 dpm of [^3H]arginine are added to the assay mixture. Enzyme reaction is started by the addition of 4 μg of a crude cytosolic fraction containing human inducible NO-synthase and the reaction mixture is incubated for 45 to 60 min at 37° C. Enzyme reaction is stopped by adding 10 μl of 2M MES-buffer pH 5.0. 50 μl of the incubation mixture are transferred into a MADP N65 filtration microtiter plate (Millipore, Eschborn, FRG) containing already 50 μl of AG-50W-X8 cation exchange resin (Biorad, München, FRG). The resin in the Na loaded form is pre-equilibrated in water and 70 μl (corresponding to 50 μl dry beads) are pipetted under heavy stirring with a 8 channel pipette into the filtration plate. After pipetting 50 μl of the enzyme reaction mixture onto the filtration plates, the plates are placed on a filtration manifold (Porvair, Shepperton, UK) and the flow through is collected in Pico scintillation plates (Packard, Meriden, Conn.). The resin in the filtration plates is washed with 75 μl of water (1×50 μl and 1×25 μl) which is also collected in the same plate as the sample. The total flow through of 125 μl is mixed with 175 μl of Microscint-40 scintillation cocktail (Packard) and the scintillation plate is sealed with TopSeal P-foil (Packard). Scintillation plates are counted in a scintillation counter.
For the measurement of inducible NO-synthase-inhibiting potencies of compounds increasing concentrations of inhibitors were included into the incubation mixture. IC50-values were calculated from the percent inhibition at given concentrations by nonlinear least square fitting.
The inhibitory values determined for the compounds according to the invention follow from the following table A, in which the compound numbers correspond to the example numbers.

T1 sequence (P35228 whole entry): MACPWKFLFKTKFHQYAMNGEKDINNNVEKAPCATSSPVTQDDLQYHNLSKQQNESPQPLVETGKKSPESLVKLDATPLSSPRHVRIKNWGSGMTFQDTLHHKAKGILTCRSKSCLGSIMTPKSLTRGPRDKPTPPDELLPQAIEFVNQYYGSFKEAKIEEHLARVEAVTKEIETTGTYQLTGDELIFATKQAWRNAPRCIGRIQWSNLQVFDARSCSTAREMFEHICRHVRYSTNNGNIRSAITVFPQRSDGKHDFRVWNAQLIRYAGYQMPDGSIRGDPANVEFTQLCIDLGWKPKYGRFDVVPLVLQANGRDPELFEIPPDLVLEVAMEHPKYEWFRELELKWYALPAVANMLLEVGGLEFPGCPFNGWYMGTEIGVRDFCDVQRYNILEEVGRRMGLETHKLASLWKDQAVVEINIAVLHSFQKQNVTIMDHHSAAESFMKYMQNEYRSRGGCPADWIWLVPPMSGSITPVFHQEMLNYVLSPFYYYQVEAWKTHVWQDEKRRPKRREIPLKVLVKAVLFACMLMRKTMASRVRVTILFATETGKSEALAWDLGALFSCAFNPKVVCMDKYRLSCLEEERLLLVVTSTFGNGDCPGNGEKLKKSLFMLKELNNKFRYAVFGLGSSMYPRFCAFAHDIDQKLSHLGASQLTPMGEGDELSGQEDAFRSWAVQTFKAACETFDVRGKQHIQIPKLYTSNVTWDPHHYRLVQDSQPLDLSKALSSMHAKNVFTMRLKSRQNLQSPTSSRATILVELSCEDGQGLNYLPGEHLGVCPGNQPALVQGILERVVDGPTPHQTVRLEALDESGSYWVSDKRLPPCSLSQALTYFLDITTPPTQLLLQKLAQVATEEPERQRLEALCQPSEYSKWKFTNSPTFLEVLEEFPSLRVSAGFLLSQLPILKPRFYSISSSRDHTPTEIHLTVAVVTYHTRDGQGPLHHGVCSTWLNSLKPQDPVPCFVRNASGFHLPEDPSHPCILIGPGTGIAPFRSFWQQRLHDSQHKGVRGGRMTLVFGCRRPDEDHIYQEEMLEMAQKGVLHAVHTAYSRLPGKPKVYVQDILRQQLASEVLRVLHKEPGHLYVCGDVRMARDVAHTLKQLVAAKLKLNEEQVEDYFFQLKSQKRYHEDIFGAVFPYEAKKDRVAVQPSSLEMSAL

| IC50 [nM] | Compound |
| --- | --- |
| 77.6 | COc1ccnc(CCc2nc3cc4cc(Br)ccc4nc3[nH]2)c1 [compound 5, 7-Bromo-2-[2-(4-methoxypyridin-2-yl)ethyl]-3H-imidazo[4,5-b]quinoline] |
| 135 | COc1ccnc(CCc2nc3cc4cccc(C)c4nc3[nH]2)c1 [compound 3, 2-[2-(4-Methoxypyridin-2-yl)ethyl]-5-methyl-3H-imidazo[4,5-b]quinoline] |
| 102 | COc1ccnc(CCc2nc3cc4cc(OC)ccc4nc3[nH]2)c1 [compound 4, 7-Methoxy-2-[2-(4-methoxypyridin-2-yl)ethyl]-3H-imidazo[4,5-b]quinoline] |
| 117 | COc1ccnc(CCc2nc3cc4cc(C)ccc4nc3[nH]2)c1 [compound 2, 2-[2-(4-Methoxypyridin-2-yl)ethyl]-7-methyl-3H-imidazo[4,5-b]quinoline] |
| 89.1 | COc1ccnc(CCc2nc3cc4ccccc4nc3[nH]2)c1 [compound 1, 2-[2-(4-Methoxypyridin-2-yl)ethyl]-3H-imidazo[4,5-b]quinoline] |

| Compound | IC50 [nM] |
| --- | --- |
| COc1ccnc(CCc2nc3cc4cc(-c5ccc(CO)cc5)ccc4nc3[nH]2)c1 [compound 6] | 363 |
